Results taken from paper PMC10008561 (Nature Communications, 2023).
Values joined by “and” are separate entries in the source; they are usually repeats but may differ in a detail not shown here. Identical values can stand only once.

How the values were obtained:
human KOR (Gi2) [1] = molecular target: T1, human KOR (Gi2) (Homo sapiens, UniProt P41145, F114L); assay: cell-based
T1 construct: expressed in transfected cells; host or cells: HEK293T

human KOR (Gi2) [2] = molecular target: T2, human KOR (Gi2) (Homo sapiens, UniProt P41145, D105A); assay: cell-based; details: HEK-293T
T2 construct: expressed in transfected cells; host or cells: HEK293T

human KOR (Gi2) [3] = molecular target: T3, human KOR (Gi2) (Homo sapiens, UniProt P41145, D334A); assay: cell-based
T3 construct: expressed in transfected cells; host or cells: HEK293T

human KOR (Gi2) [4] = molecular target: T4, human KOR (Gi2) (Homo sapiens, UniProt P41145, Y139L); assay: cell-based
T4 construct: expressed in transfected cells; host or cells: HEK293T

human KOR (Gi2) [5] = molecular target: T5, human KOR (Gi2) (Homo sapiens, UniProt P41145, K200A); assay: cell-based
T5 construct: expressed in transfected cells; host or cells: HEK293T

human KOR (Gi2) [6] = molecular target: T6, human KOR (Gi2) (Homo sapiens, UniProt P41145, N326A); assay: cell-based
T6 construct: expressed in transfected cells; host or cells: HEK293T

human KOR (Gi2) [7] = molecular target: T7, human KOR (Gi2) (Homo sapiens, UniProt P41145, L253A); assay: cell-based
T7 construct: expressed in transfected cells; host or cells: HEK293T

human KOR (Gi2) [8] = molecular target: T8, human KOR (Gi2) (Homo sapiens, UniProt P41145, E297A); assay: cell-based
T8 construct: expressed in transfected cells; host or cells: HEK293T

human KOR (Gi2) [9] = molecular target: T9, human KOR (Gi2) (Homo sapiens, UniProt P41145, G319L); assay: cell-based
T9 construct: expressed in transfected cells; host or cells: HEK293T

human KOR (Gi2) [10] = molecular target: T10, human KOR (Gi2) (Homo sapiens, UniProt P41145, K227A); assay: cell-based
T10 construct: expressed in transfected cells; host or cells: HEK293T

human KOR (Gi2) [11] = molecular target: T11, human KOR (Gi2) (Homo sapiens, UniProt P41145, N322A); assay: cell-based
T11 construct: expressed in transfected cells; host or cells: HEK293T

human KOR (Gi2) [12] = molecular target: T12, human KOR (Gi2) (Homo sapiens, UniProt P41145, F283A); assay: cell-based
T12 construct: expressed in transfected cells; host or cells: HEK293T

human KOR (Gi2) [13] = molecular target: T13, human KOR (Gi2) (Homo sapiens, UniProt P41145); assay: cell-based
T13 construct: expressed in transfected cells; host or cells: HEK293T

human KOR (Gi2) [14] = molecular target: T14, human KOR (Gi2) (Homo sapiens, UniProt P41145, T94V); assay: cell-based
T14 construct: expressed in transfected cells; host or cells: HEK293T

human KOR [15] = molecular target: T15, human KOR (Homo sapiens, UniProt P41145, V134A); assay: cell-based; details: HEK-293T
T15 construct: expressed in transfected cells; host or cells: HEK 293T (ATCC, CRL-3216)

human KOR [16] = molecular target: T16, human KOR (Homo sapiens, UniProt P41145, Y320L); assay: cell-based; details: HEK-293T
T16 construct: expressed in transfected cells; host or cells: HEK 293T (ATCC, CRL-3216)

human KOR [17] = molecular target: T17, human KOR (Homo sapiens, UniProt P41145, W287A); assay: cell-based; details: HEK-293T
T17 construct: expressed in transfected cells; host or cells: HEK 293T (ATCC, CRL-3216)

human KOR [18] = molecular target: T18, human KOR (Homo sapiens, UniProt P41145, E209A); assay: cell-based; details: HEK-293T
T18 construct: expressed in transfected cells; host or cells: HEK 293T (ATCC, CRL-3216)

human KOR [19] = molecular target: T19, human KOR (Homo sapiens, UniProt P41145, W124L); assay: cell-based; details: HEK-293T
T19 construct: expressed in transfected cells; host or cells: HEK 293T (ATCC, CRL-3216)

human KOR [20] = molecular target: T20, human KOR (Homo sapiens, UniProt P41145, K227A); assay: cell-based; details: HEK-293T
T20 construct: expressed in transfected cells; host or cells: HEK 293T (ATCC, CRL-3216)

human KOR [21] = molecular target: T21, human KOR (Homo sapiens, UniProt P41145, F114L); assay: cell-based; details: HEK-293T
T21 construct: expressed in transfected cells; host or cells: HEK 293T (ATCC, CRL-3216)

human KOR [22] = molecular target: human KOR (Homo sapiens, UniProt P41145); assay: cell-based
human KOR [23] = molecular target: T22, human KOR (Homo sapiens, UniProt P41145, S324C); assay: cell-based; details: HEK-293T
T22 construct: expressed in transfected cells; host or cells: HEK 293T (ATCC, CRL-3216)

KOR = system: KOR; design: method as in Cao et al., ACS Chem Neuro 2020; details: ref Cao et al., ACS Chem Neuro 2020; cited from earlier work
[24] = ref Liu et al., Neuropsychopharmacology, 2018, Abraham et al., cited from earlier work

T13 sequence (P41145 whole entry): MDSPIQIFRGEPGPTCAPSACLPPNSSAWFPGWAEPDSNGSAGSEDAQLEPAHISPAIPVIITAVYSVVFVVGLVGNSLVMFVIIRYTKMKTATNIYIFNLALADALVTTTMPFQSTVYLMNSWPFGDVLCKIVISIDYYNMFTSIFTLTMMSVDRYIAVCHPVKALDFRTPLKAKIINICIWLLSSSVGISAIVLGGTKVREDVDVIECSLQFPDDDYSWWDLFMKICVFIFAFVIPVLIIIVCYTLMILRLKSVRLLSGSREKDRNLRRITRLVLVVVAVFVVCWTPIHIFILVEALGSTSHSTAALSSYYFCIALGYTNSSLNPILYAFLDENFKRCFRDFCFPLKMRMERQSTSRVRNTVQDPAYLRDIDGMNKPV
T18 sequence (P41145 whole entry E209A): as the sequence (P41145 whole entry) above, with E209A counted along it
T15 sequence (P41145 whole entry V134A): as the sequence (P41145 whole entry) above, with V134A counted along it
T7 sequence (P41145 whole entry L253A): as the sequence (P41145 whole entry) above, with L253A counted along it
T19 sequence (P41145 whole entry W124L): as the sequence (P41145 whole entry) above, with W124L counted along it
T16 sequence (P41145 whole entry Y320L): as the sequence (P41145 whole entry) above, with Y320L counted along it
T21 sequence (P41145 whole entry F114L): as the sequence (P41145 whole entry) above, with F114L counted along it
T10 sequence (P41145 whole entry K227A): as the sequence (P41145 whole entry) above, with K227A counted along it
T14 sequence (P41145 whole entry T94V): as the sequence (P41145 whole entry) above, with T94V counted along it
T12 sequence (P41145 whole entry F283A): as the sequence (P41145 whole entry) above, with F283A counted along it
T6 sequence (P41145 whole entry N326A): as the sequence (P41145 whole entry) above, with N326A counted along it
T11 sequence (P41145 whole entry N322A): as the sequence (P41145 whole entry) above, with N322A counted along it
T9 sequence (P41145 whole entry G319L): as the sequence (P41145 whole entry) above, with G319L counted along it
T8 sequence (P41145 whole entry E297A): as the sequence (P41145 whole entry) above, with E297A counted along it
T5 sequence (P41145 whole entry K200A): as the sequence (P41145 whole entry) above, with K200A counted along it
T1 sequence (P41145 whole entry F114L): as the sequence (P41145 whole entry) above, with F114L counted along it
T3 sequence (P41145 whole entry D334A): as the sequence (P41145 whole entry) above, with D334A counted along it
T20 sequence (P41145 whole entry K227A): as the sequence (P41145 whole entry) above, with K227A counted along it
human KOR (Homo sapiens, UniProt P41145), sequence (P41145 whole entry): as the sequence (P41145 whole entry) above
T17 sequence (P41145 whole entry W287A): as the sequence (P41145 whole entry) above, with W287A counted along it
T2 sequence (P41145 whole entry D105A): as the sequence (P41145 whole entry) above, with D105A counted along it
T4 sequence (P41145 whole entry Y139L): as the sequence (P41145 whole entry) above, with Y139L counted along it
T22 sequence (P41145 whole entry S324C): as the sequence (P41145 whole entry) above, with S324C counted along it

For CN(C(=O)/C=C/c1ccoc1)[C@@H]1CC[C@@]2(O)[C@H]3Cc4ccc(O)c5c4[C@@]2(CCN3CC2CC2)[C@H]1O5 [Nalfurafine, nalfurafine], the “FC vs wild type” value (human KOR (Gi2) [1]) was 18, the Emax (human KOR (Gi2) [1]; HEK-293T) was 56.9% and the Emax (human KOR (Gi2) [2]) was 96.1%. The “FC vs wild type” value (human KOR (Gi2) [3]) was 269, the Emax (human KOR (Gi2) [3]; HEK-293T) was 86.1% and the “FC vs wild type” value (human KOR (Gi2) [4]) was 1. The “FC vs wild type” value (human KOR (Gi2) [5]) was 2, the Emax (human KOR (Gi2) [5]; HEK-293T) was 104% and the “FC vs wild type” value (human KOR (Gi2) [6]) was 3. For the same compound, the Emax (human KOR (Gi2) [6]; HEK-293T) was 101%, the “FC vs wild type” value (human KOR (Gi2) [7]) was 87 and 100 and the Emax (human KOR (Gi2) [7]; HEK-293T) was 105%. The “FC vs wild type” value (human KOR (Gi2) [8]) was 2, the Emax (human KOR (Gi2) [8]; HEK-293T) was 106% and the “FC vs wild type” value (human KOR (Gi2) [9]) was 17. The Emax (human KOR (Gi2) [9]; HEK-293T) was 116%, the “FC vs wild type” value (human KOR (Gi2) [10]) was 1 and the Emax (human KOR (Gi2) [10]; HEK-293T) was 101%. For the same compound, the “FC vs wild type” value (human KOR (Gi2) [11]) was 178, the Emax (human KOR (Gi2) [11]; HEK-293T) was 77.2% and the “FC vs wild type” value (human KOR (Gi2) [12]) was 7. For the same compound, the Emax (human KOR (Gi2) [12]; HEK-293T) was 79%, the Emax% (human KOR (Gi2) [13]) was 101% and the “FC vs wild type” value (human KOR (Gi2) [13]) was 1. For the same compound, the Emax (human KOR (Gi2) [13]; HEK-293T) was 101%, the “FC vs wild type” value (human KOR (Gi2) [14]) was 2 and the Emax (human KOR (Gi2) [14]; HEK-293T) was 95.8%. The Emax (human KOR [15]) was 93 ± 3%, the activation at 3.162 pM (human KOR [15]; read-out: cAMP response) was 23.5% and the activation at 10 pM (human KOR [15]; read-out: cAMP response) was 48.2%. The activation at 31.62 pM (human KOR [15]; read-out: cAMP response) was 53.1%, the activation at 0.0001 µM (human KOR [15]; read-out: cAMP response) was 62.8% and the activation at 0.001 µM (human KOR [15]; read-out: cAMP response) was 82.5%. For the same compound, the activation at 0.01 µM (human KOR [15]; read-out: cAMP response) was 96.2%, the activation at 0.1 µM (human KOR [15]; read-out: cAMP response) was 104% and the activation at 1 µM (human KOR [15]; read-out: cAMP response) was 96.6%. For the same compound, the activation at […] (human KOR [15]; read-out: cAMP response) was 58.2% and 90% and 99.4% and 95.7%, the Emax (human KOR [16]) was 105 ± 2% and the activation at 1 pM (human KOR [16]; read-out: cAMP response) was 16.5%. It also gave an activation at 3.162 pM (human KOR [16]; read-out: cAMP response) of 13.2%, an activation at 10 pM (human KOR [16]; read-out: cAMP response) of 16.1% and an activation at 31.62 pM (human KOR [16]; read-out: cAMP response) of 35.7%. For the same compound, the activation at 0.0001 µM (human KOR [16]; read-out: cAMP response) was 59%, the activation at 0.001 µM (human KOR [16]; read-out: cAMP response) was 95.7% and the activation at 0.01 µM (human KOR [16]; read-out: cAMP response) was 103%. The activation at 0.1 µM (human KOR [16]; read-out: cAMP response) was 105%, the activation at 1 µM (human KOR [16]; read-out: cAMP response) was 105% and the activation at […] (human KOR [16]; read-out: cAMP response) was 78.6% and 99.7% and 105% (2×). For the same compound, the Emax (human KOR [17]) was 98 ± 4%, the Emax (human KOR [18]) was 100 ± 2% and the activation at 1 pM (human KOR [18]; read-out: cAMP response) was 28.4%. It also gave an activation at 3.162 pM (human KOR [18]; read-out: cAMP response) of 77.1%, an activation at 10 pM (human KOR [18]; read-out: cAMP response) of 90.6% and an activation at 31.62 pM (human KOR [18]; read-out: cAMP response) of 94.9%. The activation at 0.0001 µM (human KOR [18]; read-out: cAMP response) was 99.2%, the activation at 0.001 µM (human KOR [18]; read-out: cAMP response) was 99.5% and the activation at 0.01 µM (human KOR [18]; read-out: cAMP response) was 101%. For the same compound, the activation at 0.1 µM (human KOR [18]; read-out: cAMP response) was 100%, the activation at 1 µM (human KOR [18]; read-out: cAMP response) was 98.2% and the activation at […] (human KOR [18]; read-out: cAMP response) was 96.6% and 99.9% and 99.6% and 98.7%. It also gave an Emax (human KOR [19]) of 98 ± 3%, an activation at 10 pM (human KOR [19]; read-out: cAMP response) of 17.5% and an activation at 0.0001 µM (human KOR [19]; read-out: cAMP response) of 29.6%. The activation at 0.001 µM (human KOR [19]; read-out: cAMP response) was 65.5%, the activation at 0.01 µM (human KOR [19]; read-out: cAMP response) was 88.1% and the activation at 0.1 µM (human KOR [19]; read-out: cAMP response) was 106%. For the same compound, the activation at 1 µM (human KOR [19]; read-out: cAMP response) was 99.8%, the activation at […] (human KOR [19]; read-out: cAMP response) was 45.8% and 75.2% and 98.3% and 97.1% and the Emax (human KOR [20]) was 100 ± 3%. It also gave an Emax (human KOR [21]) of 97 ± 4%, an activation at 3.162 pM (human KOR [21]; read-out: cAMP response) of 9.34% and an activation at 31.62 pM (human KOR [21]; read-out: cAMP response) of 29.6%. It also gave an activation at 0.0001 µM (human KOR [21]; read-out: cAMP response) of 36.4%, an activation at 0.001 µM (human KOR [21]; read-out: cAMP response) of 68% and an activation at 0.01 µM (human KOR [21]; read-out: cAMP response) of 90.9%. The activation at 0.1 µM (human KOR [21]; read-out: cAMP response) was 99.9%, the activation at 1 µM (human KOR [21]; read-out: cAMP response) was 97.6% and the activation at […] (human KOR [21]; read-out: cAMP response) was 66.6% and 88.8% and 97.4% and 103%. The reduction of potency (human KOR [22]) was 5 fold, the Emax (human KOR [23]) was 99 ± 2% and the “bias factor toward G protein signaling” value (KOR) was 4.5. The side effects ([24]; high dose 20-50 μg/Kg) was “starts causing motor incoordination, sedation, and aversion effects” and the “side effects (dysphoria, sedation, hallucinations)” value ([24]; low dose 2.5-20 μg/Kg) was “does not produce typical”.
